Assay results published in paper PMC11317440, “Soloxolone para-methylanilide effectively suppresses aggressive phenotype of glioblastoma cells including TGF-β1-induced glial-mesenchymal transition in vitro and inhibits growth of U87 glioblastoma xenografts in mice” (Frontiers in Pharmacology, 2024).

Legend:
U118 cells [1] = assay: Annexin V-FITC/propidium iodide flow cytometry, U118, 48 h; format: cell-based, human
Description: To observe apoptosis and necrosis, U87 and U118 cells were stained with Annexin V-FITC and propidium iodide (ab14085; Abcam, Inc., Cambridge, MA, USA) after 48 h of incubation with compound 7 (0–2000 nM) according to the manufacturer’s protocol (n = 3). To quantify the total proportion of apoptotic cells in control and experimental groups, the events accumulated in the lower right quadrant (early apoptosis) and upper right quadrant (late apoptosis) were summarized.
After staining, 10,000 cells per sample were analyzed on a NovoCyte flow cytometer using NovoExpress software (ACEA Biosciences, Inc., USA).

U118 cells [2] = assay: MTT assay 72 h, 7 and TMZ alone and combined, synergy (HSA), U118; format: cell-based, human
Description: The drug synergy score was calculated for the dose-response matrix according to the highest single-agent (HSA) model using the SynergyFinder + web application (https://www.synergyfinder.org/).

EPNT-5 cells = assay: Colony formation assay, EPNT-5 cells; format: cell-based, mouse; conditions: 10 days
Description: (§1) U87, U118 and EPNT-5 cells were seeded at a density of 200 cells/well in 96-well plates and treated with increasing concentrations of compound 7 (0–1,000 nM) dissolved in 10% FBS-containing DMEM (n = 5). On day 10, colonies were fixed with 4% formaldehyde and stained with crystal violet dye (0.1% w/v). Images were captured using the iBright 1,500 Imaging System (Invitrogen, USA) and the area of colonies with a minimum diameter of 100 µm was calculated using ImageJ. In the case of overlapping colonies, their total area was calculated. Finally, the area of the formed cell colonies was summed and normalized to the total colony area in the control.

[3] = system: TGF-β1-induced U118 cells; assay: Cell morphology (aspect ratio) of TGF-β1-induced U118 cells; format: cell-based, human; conditions: TGF-β1 50 ng/mL, 7 50 nM, 48 h
Description: After seeding at a concentration of 5,000 cells/well in triplicate in 96-well plates and incubating overnight, U87 and U118 cells were exposed to TGF-β1 (50 ng/mL) and non-toxic concentrations of soloxolone amides for 48 h. An EVOS XL Core microscope with an integrated CMOS camera (Thermo Fisher Scientific, USA) was then used to examine cell morphology at ×20 magnification. Aspect ratio (AR) and area were quantified for at least 150 cells in each experimental group using ImageJ software (NIH, USA).

[4] = system: U87 glioblastoma xenograft; assay: U87 glioblastoma xenograft model; format: in vivo, athymic nude mice; conditions: 7 20 mg/kg i.p.
Description: A xenograft model of tumor progression was induced by subcutaneous (s.c.) implantation of U87 glioblastoma cells (2×10^7 cells/mL) suspended in 0.1 mL of saline buffer into the left flank of athymic nude mice. On day 4 after tumor transplantation, the mice were divided into four groups: (1) mice received intraperitoneal (i.p.) injections of 10% Tween-80 (vehicle) (n = 6); (2) mice received i.p. injections of compound 7 in 10% Tween-80 at a dose of 20 mg/kg (n = 5); (3) mice received i.p. injections of TMZ in saline buffer at a dose of 10 mg/kg (n = 5); (4) mice received combination therapy of compound 7 and TMZ at the same dosage and administration route (n = 6). Compound 7 was administered three times per week; in total seven injections were performed. TMZ was administered daily except weekends; in total eleven injections were performed. During the experiment, the tumor volumes were determined three times per week using caliper measurements and were calculated as V = (D × d^2)/2, where D is the longest diameter of the tumor node and d is the shortest diameter of the tumor node perpendicular to D. Mice were sacrificed on day 19 after tumor transplantation and material (tumor nodes, livers, and kidneys) was collected for subsequent analysis.

U87 primary tumorspheres = assay: Primary tumorsphere growth, U87; format: cell-based, human
Description: For evaluation of spheroid growth, the bottom of the 96-well plate was covered with 1% agarose for non-adherent conditions. U87 cells (5,000 cells/well) were then seeded and allowed to form spheroids for 24 h, after which increasing concentrations of compound 7 (0–1,000 nM) were added (n = 8). Every other day of the 10-day experiment, fresh medium supplemented with compound 7 was added to half of the medium, and the spheroids were photographed using a camera-equipped ZEISS Primo Vert microscope (Carl Zeiss Microscopy GmbH, Jena, Germany). To assess the formation of secondary tumorspheres, cells were dissociated from primary tumorspheres after 4 days of compound 7 stimulation using TrypLE Express and were then seeded into agarose-coated 96-well plates (n = 8). On day 3, the resulting secondary spheroids were examined microscopically. Primary and secondary spheroid areas were quantified using ImageJ.

U87 cells = assay: Colony formation assay, U87 cells; format: cell-based, human; conditions: 10 days
Description: as §1

TGF-β1-treated U87 cells = assay: Adhesion of U87 cells to culture plastic (TrypLE treatment assay); format: cell-based, human; conditions: TGF-β1 50 ng/mL, non-toxic concentrations, 48 h
Description: Adhesiveness of glioblastoma cells was assessed by two independent methods. First, cell adhesion to culture plastic was tested using a trypsin treatment assay, as previously described ([Sava et al., 2004]; [Mazuryk et al., 2015]; [van Dijk et al., 2017]). Briefly, U87 and U118 cells (10,000 cells per well of a 96-well plate, n = 4) were cultured with TGF-β1 (50 ng/mL) and non-toxic concentrations of soloxolone amides for 48 h and then treated with a 1:20 dilution of TrypLE Express (Gibco, USA) in PBS for 3 min at 37°C. Non-adherent cells were then removed by a triple PBS wash, and the remaining adherent cells were fixed with 4% formaldehyde and stained with crystal violet dye (0.1% w/v). Images were captured using the iBright 1,500 Imaging System (Invitrogen, USA), and the cell-occupied area was calculated using ImageJ. Alternatively, the number of adherent cells was quantified using the MTT assay.

[5] = U87 primary tumorspheres, 7 1,000 nM

Cc1ccc(NC(=O)[C@@]2(C)CC[C@]3(C)CC[C@]4(C)[C@H](C(=O)C=C5[C@@]6(C)C=C(C#N)C(=O)C(C)(C)C6CC[C@]54C)[C@@H]3C2)cc1 (stereo partly shown) [compound 7, N-p-tolyl-2-cyano-3,12-dioxo-18βH-olean-9(11),1(2)-dien-30-amide]
percentage of cells in the right quadrants (apoptosis) (U118 cells [1]; U118, 7 450 nM): 82.5%
percentage of cells in the right quadrants (apoptosis) (U118 cells [1]; U118, 7 1,000 nM): 95.6%
percentage of cells in the right quadrants (apoptosis) (U118 cells [1]; U118, 7 2000 nM): 96.4%
percentage of necrotic cells (U118 cells [1]; U118, at any concentration of 7 (450-2000 nM)): ≤ 3.5%
IC50 (U118 cells [2]; Homo sapiens, MTT): 169 nM
reduction of the cytotoxic effect by NAC (U118 cells [2]; U118, NAC 2 mM, TMZ 125 μM, 7 100 nM): 80.3%
colony growth (EPNT-5 cells; EPNT-5, 7 450 nM): complete abrogation of colony growth
colony growth (EPNT-5 cells; EPNT-5, 7 1,000 nM): complete abrogation of colony growth
inhibition at 0.05 µM (EPNT-5 cells; Mus musculus, 240 h, EPNT-5, 7 50 nM): 56.1%
inhibition at 0.1 µM (EPNT-5 cells; Mus musculus, 240 h, EPNT-5, 7 100 nM): 69%
shape (aspect ratio) of TGF-β1-induced U118 cells [3]: restored the shape of TGF-β1-induced cells to that of the control cells
reduction in tumor volume compared to the vehicle group ([4]; day 11): 2.1 fold
reduction in tumor volume compared to the vehicle group ([4]; day 13): 3.2 fold
reduction in tumor volume compared to the vehicle group ([4]; day 15, TMZ 10 mg/kg i.p.): 6.6 fold
reduction in tumor volume compared to the vehicle group ([4]; day 18, TMZ 10 mg/kg i.p.): 7.2 fold
reduction in tumor weight compared to the vehicle ([4]; end of the experiment (day 19), TMZ 10 mg/kg i.p.): 8 fold
increase of spheroid growth compared to control (U87 primary tumorspheres; U87 primary tumorspheres, 7 50 nM, p-value <0.05): 21%
increase of spheroid growth compared to control (U87 primary tumorspheres; U87 primary tumorspheres, 7 100 nM, not statistically significant): 10.4%
spheroid growth (U87 primary tumorspheres; U87 primary tumorspheres, 7 450 nM): stopping it after 4 days
reduction of tumorsphere size compared to control by day 10 (U87 primary tumorspheres; [5]): 28.6%
spheroid growth (U87 primary tumorspheres; [5]): completely blocking it
concentration causing a large-scale reduction of spheroids (U87 primary tumorspheres; U87 tumorspheres): 1 µM
inhibition at 0.05 µM (U87 cells; Homo sapiens, U-87 MG, 240 h, U87, 7 50 nM): 48.7%
inhibition at 0.1 µM (U87 cells; Homo sapiens, U-87 MG, 240 h, U87, 7 100 nM): 74.2%
colony area (U87 cells; U87, 7 50 nM): 51.3%
colony area (U87 cells; U87, 7 1,000 nM): 3.9%
adhesion of TGF-β1-treated U87 cells to culture plastic (MTT readout) (TGF-β1-treated U87 cells): one of the most pronounced pro-adhesive effects
adhesion of TGF-β1-treated U87 cells to culture plastic (crystal violet) (TGF-β1-treated U87 cells): restoring it to control levels
